Source: article PMC4941645, “Oxidative Stress Induced by Pt(IV) Pro-drugs Based on the Cisplatin Scaffold and Indole Carboxylic Acids in Axial Position” (Scientific Reports, 2016)

Columns and labels:
A375 melanoma cells [1] = experiment: MTT cytotoxicity test, A375; assay type: cell-based, human; settings: A375, 72 h, ± S.D.
Method: (§1) The cytotoxic activity of the complexes and of the uncoordinated ligands was evaluated by the MTT test on a panel of human tumor cell lines containing examples of pancreatic (BxPC3), colorectal (HCT-15), breast (MCF-7), cervical (A431), and lung (A549) cancers as well as of melanoma (A375). For comparison purposes, the cytotoxicity of cisplatin was evaluated under the same experimental conditions.
(§2) Cisplatin was dissolved in 0.9% NaCl solution.
(§3) Human breast (MCF-7), colon (HCT-15), lung (A549) and pancreatic (BxPC3) carcinoma cell lines together with melanoma (A375) cells were obtained from American Type Culture Collection (ATCC, Rockville, MD). The human ovarian cancer cell line 2008 and its cisplatin resistant variant, C13*, were kindly provided by Prof. G. Marverti (Department of Biomedical Science of Modena University, Italy). Human cervical carcinoma (A431) cells were kindly provided by Prof. F. Zunino (Division of Experimental Oncology B, Istituto Nazionale dei Tumori, Milan, Italy). Cell lines were maintained in the logarithmic phase at 37 °C in a 5% carbon dioxide atmosphere using the following culture media containing 10% fetal calf serum (Euroclone, Milan, Italy), antibiotics (50 units/mL penicillin and 50 μg/mL streptomycin) and 2 mM L-glutamine: (i) RPMI-1640 medium (Euroclone) for 2008, C13*, MCF-7, HCT-15, A431 and BxPC3 cells, (ii) F-12 HAM’S (Sigma Chemical Co.) for A549 cells, iii) DMEM (Sigma Chemical Co.) for A375 cells.
(§4) The growth inhibitory effect toward tumor cells was evaluated by means of the MTT assay. Briefly, (3–8) × 10^3 cells/well, dependent upon the growth characteristics of the cell line, were seeded in 96-well microplates in growth medium (100 μL). After 24 h, the medium was removed and replaced with fresh medium containing the compound to be studied at the appropriate concentration. Triplicate cultures were established for each treatment. After 24, 48, or 72 h, each well was treated with 10 μL of a 5 mg/mL MTT saline solution and, after 5 h of incubation, 100 μL of a sodium dodecylsulfate (SDS) solution in 0.01 M HCl was added. After an overnight incubation, cell growth inhibition was detected by measuring the absorbance of each well at 570 nm using a Bio-Rad 680 microplate reader. The mean absorbance for each drug dose was expressed as a percentage of the control, untreated well absorbance and plotted vs drug concentration. The IC50 values, the drug concentrations that decrease the mean absorbance at 570 nm to 50% of that of untreated control wells, were calculated from the dose–response curves with the four-parameter logistic model (4PL). The final value is the mean ± S.D. of at least three independent experiments performed in triplicate.

[2] = test system: MCF-7 breast carcinoma cells; experiment: MTT cytotoxicity test, MCF-7; assay type: cell-based, human; settings: MCF-7, 72 h, ± S.D.
Method: as §1, §2, §3, §4

[3] = test system: A431 cervical carcinoma cells; experiment: MTT cytotoxicity test, A431; assay type: cell-based, human; settings: A431, 72 h, ± S.D.
Method: as §1, §2, §3, §4

[4] = test system: HCT-15 colon carcinoma cells; experiment: MTT cytotoxicity test, HCT-15; assay type: cell-based, human; settings: HCT-15, 72 h, MTT, ± S.D.
Method: as §1, §2, §3, §4

[5] = test system: C13* cisplatin-resistant ovarian cancer cells; experiment: MTT cytotoxicity test, cisplatin-resistant C13*; assay type: cell-based, human; settings: for IC50: C13* cisplatin-resistant, 72 h, MTT, ± S.D.; for RF (resistance factor): IC50 resistant (C13*) / parent line (2008)
Method: The cytotoxic properties of the complexes were also evaluated in a pair of tumor cell lines suitably selected for their sensitivity and resistance to cisplatin (adenocarcinoma cells 2008/C13^*). Cross-resistance profiles were evaluated by means of the resistance factor (RF), defined as the ratio between IC50 values calculated for the resistant cells and those obtained with the sensitive ones (Table 2). The phenomenon of cisplatin resistance is multifactorial in nature.
as §2, §3, §4

[6] = test system: A549 lung carcinoma cells; experiment: cells; settings: A549, 72 h, MTT, ± S.D.
Method: as §1, §2, §3, §4

[7] = test system: BxPC3 pancreatic carcinoma cells; experiment: MTT cytotoxicity test, BxPC3; assay type: cell-based, human; settings: BxPC3, 72 h, MTT, ± S.D.
Method: as §1, §2, §3, §4

A375 cells = experiment: ROS production (CM-H2DCFDA probe); assay type: cell-based, human; settings: A375, 12.5 μM, compared with antimycin positive control
Method: ROS are products of normal cell metabolism but their levels can be increased upon exposure to toxic agents or interference with the cellular redox network. […] Consequently, cellular ROS levels upon treatment with equal doses (12.5 μM) of the different platinum complexes were monitored in A375 cancer cells by using the peroxide-sensitive fluorescent probe CM-H2DCFDA (5-(and-6)-chloromethyl-2′,7′-dichlorodihydrofluorescein diacetate, acetyl ester). Antimycin, a classical inhibitor of the mitochondrial respiratory chain at the level of complex III, was used as a positive control.
Figure 8 ROS production in A375 cells. Cells were preincubated in PBS/10 mM glucose medium for 20 min at 37 °C in the presence of 10 μM CM-DCFDA and then treated with equimolar doses (12.5 μM) of indole propionic acid Pt(IV) derivatives (panel A) or indole acetic acid Pt(IV) derivatives (panel B). The fluorescence of DCF was measured.
The production of ROS was measured in A375 cells (10^4 per well) grown for 24 h in 96-well plates in DMEM medium without phenol red (Sigma Chemical Co.). Cells were then washed with PBS and loaded with 10 μM 5-(and-6)-chloromethyl-2′,7′-dichlorodihydrofluorescein diacetate, acetyl ester (CM–H2DCFDA) (Molecular Probes-Invitrogen) for 25 min in the dark. Afterwards, cells were washed with PBS and incubated with increasing concentrations of the tested complexes. The fluorescence increase was estimated with a plate reader (Fluoroskan Ascent FL, Labsystem, Finland) at 485 (excitation) and 527 nm (emission). Antimycin (3 μM, Sigma Chemical Co.), a potent inhibitor of Complex III in the electron transport chain, was used as positive control.

[8] = Log P octanol/water, shake flask method with ICP-MS; assay type: physicochemical; settings: n-octanol / 0.9% NaCl water, Pt by ICP-MS
Method: Partition coefficients (logP values) for octanol/water partition were determined in order to examine whether a correlation exists between lipophilicity and accumulation into cells. The log P values obtained (Table 3) give the trend in lipophilicity as mono indole acid complex < succinate complex < acetate complex < bis indole acid complex < benzoate complex for both the IAA and the IPA series.
The logP values of the Pt(IV) compounds were determined using the shake flask method. The respective Pt(IV) complex was dissolved in 0.9% NaCl (w/v) ultrapure water (presaturated with n-octanol). The solutions were sonicated and filtered to remove undissolved Pt(IV) compounds. The initial Pt concentrations were determined by ICP-MS. Subsequently, the Pt(IV) solutions were added to an equal volume of n-octanol (presaturated with 0.9% NaCl (w/v) ultrapure water). The heterogeneous mixtures were shaken vigorously for 30 min before centrifuging at 4000 rpm for 30 min to achieve phase separation. The final Pt concentration in the aqueous phase was determined again by ICP-MS. The logarithm of the ratio of Pt concentrations in the organic and aqueous phases was calculated to determine the logP values. All experiments were done in duplicate.

[9] = test system: 2008 ovarian cancer cells; experiment: MTT cytotoxicity test, cisplatin-sensitive 2008; assay type: cell-based, human; settings: 2008 cisplatin-sensitive, 72 h, ± S.D.
Method: The cytotoxic properties of the complexes were also evaluated in a pair of tumor cell lines suitably selected for their sensitivity and resistance to cisplatin (adenocarcinoma cells 2008/C13^*). Cross-resistance profiles were evaluated by means of the resistance factor (RF), defined as the ratio between IC50 values calculated for the resistant cells and those obtained with the sensitive ones (Table 2). The phenomenon of cisplatin resistance is multifactorial in nature. Nevertheless, the main molecular mechanisms involved in drug resistance in C13* cancer cells have largely been identified. Indeed, in this cell line resistance is correlated to high cellular glutathione and thioredoxin reductase levels, reduced cellular drug uptake and enhanced repair of DNA damage. […] The RF values calculated for all derivatives were six- to nine-fold lower than that of cisplatin, clearly indicating the absence of cross-resistance.
as §2
Triplicate cultures were established for each treatment.

[10] = test system: panel of human tumor cell lines (BxPC3, HCT-15, MCF-7, A431, A549, A375); experiment: MTT cytotoxicity, mean over panel of human tumor cell lines; assay type: cell-based; settings: mean over the six cell lines of Table 1, 72 h
Method: as §1, §4

[11] = test system: nuclear DNA of A375 cells; experiment: Nuclear DNA platination (GF-AAS); assay type: cell-based, human; settings: A375, 5 μM, 24 h
Method: It is well known that the main cellular target of platinum complexes is the DNA, and platination of nuclear DNA is a critical step in triggering the death of cancer cells by platinum-based drugs. On this basis, the amount of platinum bound to nuclear DNA was also assessed in A375 cells treated with the tested Pt(IV) complexes. Cells were treated for 24 h with 5 μM of the tested complexes, the nuclear DNA was isolated and the amount of Pt in each sample was determined by means of GF-AAS analysis. The results expressed as pg Pt/ng DNA are depicted in Fig. 7. […] In particular, 1P led to a roughly 60-fold higher DNA platination level with respect to cisplatin.
A375 cells (3 × 10^6) were seeded in 10 cm Petri dishes in 10 mL of culture medium. Subsequently, cells were treated with the tested complexes (5 μM) for 24 h. The DNA was extracted and purified by a commercial spin column quantification kit (Qiagen DNeasy Blood and Tissue Kit). Only highly purified samples (A260/A230 ≅ 1.8 and […]) were included for analysis to avoid any artifacts. The samples were completely dried and re-dissolved in 200 μL of Milli-Q water (18.2 MΩ) for at least 20 min at 65 °C in a shaking thermo-mixer, mineralized and analyzed for total Pt content by GF-AAS as described above.

A375 melanoma cells [12] = experiment: Cellular accumulation of Pt (GF-AAS); assay type: cell-based, human

| Structure (SMILES) | IC50 (A375 melanoma cells [1]) | IC50 [2] | IC50 [3] | IC50 [4] | IC50 [5] | RF (resistance factor) [5] | IC50 [6] | IC50 [7] | ROS production (in words) (A375 cells) | Log P (octanol/water) [8] | IC50 [9] | IC50 [10] | DNA platination (in words) [11] | cellular platinum accumulation (in words) (A375 melanoma cells [12]; A375, 1.5 and 3 μM, 6 and 24 h) | cellular uptake level, times lower than cisplatin (A375 melanoma cells [12]; A375, GF-AAS) |
| --- | --- | --- | --- | --- | --- | --- | --- | --- | --- | --- | --- | --- | --- | --- | --- |
| N.N.O=C(Cc1c[nH]c2ccccc12)[O][Pt]([Cl])([Cl])[O]C(=O)Cc1c[nH]c2ccccc12 [Complex 2A] | 1.85 ± 0.23 µM | 3.7 ± 0.29 µM | 13.3 ± 0.84 µM | 25.2 ± 0.89 µM | 3.44 ± 0.59 µM | 0.3 | 3.75 ± 1.31 µM | 3.32 ± 0.21 µM | less effective compared to the positive control | −0.068 ± 0.07 | 11 ± 2.14 µM | – | – | – | – |
| N.N.O=C(CCc1c[nH]c2ccccc12)[O][Pt]([Cl])([Cl])[O]C(=O)CCc1c[nH]c2ccccc12 [Complex 2P] | 1.35 ± 0.75 µM | 5.54 ± 0.67 µM | 3 ± 0.35 µM | 14 ± 1.56 µM | 2.91 ± 0.64 µM | 0.4 | 2.87 ± 1.59 µM | 2.56 ± 0.65 µM | – | −0.051 ± 0.06 | 8.37 ± 2.12 µM | 4.9 µM | – | – | – |
| [NH2][Pt]([NH2])([Cl])([Cl])([O]C(=O)CCC(=O)O)[O]C(=O)CCc1c[nH]c2ccccc12 [Complex 4P] | 8.66 ± 4.03 µM | 40.56 ± 0.08 µM | 29.2 ± 4.19 µM | 42 ± 1.92 µM | > 50 µM | – | 11.8 ± 1.06 µM | > 50 µM | – | −0.100 ± 0.05 | > 50 µM | 30.4 µM | least effective | lowest platinum accumulation | about 7 |
